Where “and” joins values, the source holds several entries; their conditions need not be identical. Equal values may be shown once. Inconclusive results and toxic doses are left out.
Tested on: P388 leukemia ip, CD2F1 mice, survival T/C
Assay: NCI In Vivo Anticancer Drug Screen. Data for tumor model P388 Leukemia (intraperitoneal) in CD2F1 (CDF1) mice
Details: endpoint: median survival time, higher = longer survival
Outline: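 Mice carrying the transplanted tumor received test compound or vehicle. Survival was recorded in each group, and the value is the treated-group measurement divided by that of the vehicle-treated control group.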

[1] = dose: 50.0 mg/kg/injection, schedule: Q01DX009 (ip), vehicle: Klucel (hydroxypropylcellulose) (HPC)
[2] = dose: 100.0 mg/kg/injection, schedule: Q01DX009 (ip), vehicle: Klucel (hydroxypropylcellulose) (HPC)
[3] = dose: 60.0 mg/kg/injection, schedule: Q01DX005 (ip), vehicle: saline with Tween-80
[4] = dose: 120.0 mg/kg/injection, schedule: Q01DX005 (ip), vehicle: saline with Tween-80
[5] = dose: 240.0 mg/kg/injection, schedule: Q01DX005 (ip), vehicle: saline with Tween-80
[6] = dose: 60.0 mg/kg/injection, schedule: Q01DX005 (ip), vehicle: Klucel (hydroxypropylcellulose) (HPC)
[7] = dose: 12.5 mg/kg/injection, schedule: Q01DX009 (ip), vehicle: saline with Tween-80
[8] = dose: 25.0 mg/kg/injection, schedule: Q01DX009 (ip), vehicle: saline with Tween-80
[9] = dose: 50.0 mg/kg/injection, schedule: Q01DX009 (ip), vehicle: saline with Tween-80
[10] = dose: 50.0 mg/kg/injection, schedule: Q01DX005 (ip), vehicle: Klucel (hydroxypropylcellulose) (HPC)
[11] = dose: 100.0 mg/kg/injection, schedule: Q01DX005 (ip), vehicle: Klucel (hydroxypropylcellulose) (HPC)
[12] = dose: 200.0 mg/kg/injection, schedule: Q01DX005 (ip), vehicle: Klucel (hydroxypropylcellulose) (HPC)

Structure (SMILES): COc1ccc(/C=C/c2ccc3ccccc3[n+]2C)c(OC)c1OC
- T/C (dose: 0.63 mg/kg/injection, schedule: Q01DX009 (ip), vehicle: Klucel (hydroxypropylcellulose) (HPC)): 107 % of control
- T/C (dose: 1.25 mg/kg/injection, schedule: Q01DX009 (ip), vehicle: Klucel (hydroxypropylcellulose) (HPC)): 110 % of control
- T/C (dose: 5.0 mg/kg/injection, schedule: Q01DX009 (ip), vehicle: Klucel (hydroxypropylcellulose) (HPC)): 107 % of control

Structure (SMILES): CSc1c(C(C)(C)O)cc(C(C)(C)C)cc1C(C)(C)O
- T/C [1]: 93 % of control
- T/C [2]: 93 % of control
- T/C (dose: 200.0 mg/kg/injection, schedule: Q01DX009 (ip), vehicle: Klucel (hydroxypropylcellulose) (HPC)): 94 % of control

Structure (SMILES): COC(=O)C1(CC(=O)c2ccccn2)NC(=S)NC(=O)C1C#N (configuration not stated)
- T/C [3]: 100 % of control
- T/C [4]: 97 % of control
- T/C [5]: 97 % of control

Structure (SMILES): C/C(=N\NC(=S)Nc1ccc([N+](=O)[O-])cc1S(=O)(=O)O)c1ccccn1
- T/C (dose: 50.0 mg/kg/injection, schedule: Q01DX005 (ip), vehicle: saline with Tween-80): 103 % of control
- T/C (dose: 100.0 mg/kg/injection, schedule: Q01DX005 (ip), vehicle: saline with Tween-80): 106 % of control
- T/C (dose: 200.0 mg/kg/injection, schedule: Q01DX005 (ip), vehicle: saline with Tween-80): 103 % of control

Structure (SMILES): N#Cc1nn(-c2ccccc2)sc1=N
- T/C (dose: 3.13 mg/kg/injection, schedule: Q01DX009 (ip), vehicle: other): 104 % of control
- T/C (dose: 6.25 mg/kg/injection, schedule: Q01DX009 (ip), vehicle: other): 110 % of control
- T/C (dose: 12.5 mg/kg/injection, schedule: Q01DX009 (ip), vehicle: other): 100 % of control
- T/C (dose: 25.0 mg/kg/injection, schedule: Q01DX009 (ip), vehicle: other): 94 % of control
- T/C (dose: 50.0 mg/kg/injection, schedule: Q01DX009 (ip), vehicle: other): 88 % of control
- T/C (dose: 100.0 mg/kg/injection, schedule: Q01DX009 (ip), vehicle: other): 88 % of control

Structure (SMILES): COC(=O)CCCN1CC2C=C(C#N)C1C(C(=O)OC)C2 (configuration not stated)
- T/C (dose: 60.0 mg/kg/injection, schedule: Q01DX005 (ip), vehicle: saline): 98 % of control
- T/C (dose: 120.0 mg/kg/injection, schedule: Q01DX005 (ip), vehicle: saline): 96 % of control

Structure (SMILES): Cc1ccc(N=Nc2c(C)noc2C)c(Br)c1
- T/C [6]: 93 % of control
- T/C (dose: 120.0 mg/kg/injection, schedule: Q01DX005 (ip), vehicle: Klucel (hydroxypropylcellulose) (HPC)): 100 % of control
- T/C (dose: 240.0 mg/kg/injection, schedule: Q01DX005 (ip), vehicle: Klucel (hydroxypropylcellulose) (HPC)): 92 % of control

Structure (SMILES): CC1(C)N=C(N)N=C(N)N1c1ccc(F)c(C(F)(F)F)c1
- T/C (dose: 1.0 mg/kg/injection, schedule: Q01DX009 (ip), vehicle: saline): 118 % of control
- T/C (dose: 4.0 mg/kg/injection, schedule: Q08DX002 (ip), vehicle: saline): 119 % of control
- T/C (dose: 8.0 mg/kg/injection, schedule: Q01DX009 (ip), vehicle: saline): 170 % of control
- T/C (dose: 8.0 mg/kg/injection, schedule: Q08DX002 (ip), vehicle: saline): 120 % of control
- T/C (dose: 16.0 mg/kg/injection, schedule: Q01DX009 (ip), vehicle: saline): 181 % of control
- T/C (dose: 32.0 mg/kg/injection, schedule: Q01DX001 (ip), vehicle: saline): 121 % of control
- T/C (dose: 32.0 mg/kg/injection, schedule: Q01DX009 (ip), vehicle: saline): 190 % of control
- T/C (dose: 64.0 mg/kg/injection, schedule: Q01DX001 (ip), vehicle: saline): 121 % of control
- T/C (dose: 64.0 mg/kg/injection, schedule: Q01DX009 (ip), vehicle: saline): 90 % of control
- T/C (dose: 128.0 mg/kg/injection, schedule: Q01DX001 (ip), vehicle: saline): 122 % of control

Structure (SMILES): COc1cc(N)c(C)c2c(C)ccnc12
- T/C (dose: 30.0 mg/kg/injection, schedule: Q01DX005 (ip), vehicle: Klucel (hydroxypropylcellulose) (HPC)): 106 % of control
- T/C [6]: 92 % of control and 97 % of control

Structure (SMILES): CCCCC(=O)NN
- T/C [7]: 96 % of control
- T/C [8]: 102 % of control
- T/C [9]: 102 % of control

Structure (SMILES): Clc1ccc2c(NCC3CCCN4CCCCC34)ccnc2c1 (configuration not stated)
- T/C [10]: 104 % of control
- T/C [11]: 101 % of control

Structure (SMILES): [O-][n+]1nc2ccccc2c2ccccc21
- T/C (dose: 12.5 mg/kg/injection, schedule: Q01DX009 (ip), vehicle: Klucel (hydroxypropylcellulose) (HPC)): 105 % of control
- T/C (dose: 25.0 mg/kg/injection, schedule: Q01DX009 (ip), vehicle: Klucel (hydroxypropylcellulose) (HPC)): 105 % of control
- T/C [1]: 105 % of control and 97 % of control
- T/C [2]: 102 % of control

Structure (SMILES): O=C(NC(Cc1ccc(Cl)cc1)C(=O)O)c1ccc(Br)cc1 (configuration not stated)
- T/C [10]: 100 % of control
- T/C [11]: 96 % of control
- T/C [12]: 99 % of control

Structure (SMILES): COc1ccc2[nH]c3c(c2c1)CCNC3CC(C)CCC=C(C)C (configuration not stated)
- T/C [7]: 99 % of control
- T/C [8]: 98 % of control

Structure (SMILES): CN1C2=C(C(=O)CC2)C(c2ccccc2)C2=C1CCC2=O
- T/C (dose: 100.0 mg/kg/injection, schedule: Q01DX001 (ip), vehicle: saline with Tween-80): 96 % of control
- T/C (dose: 200.0 mg/kg/injection, schedule: Q01DX001 (ip), vehicle: saline with Tween-80): 96 % of control
- T/C (dose: 400.0 mg/kg/injection, schedule: Q01DX001 (ip), vehicle: saline with Tween-80): 96 % of control

Structure (SMILES): Cc1cc(O)c(NCCN(C)C)c2c(=O)c3ccccc3sc12
- T/C [9]: 100 % of control
- T/C (dose: 100.0 mg/kg/injection, schedule: Q01DX009 (ip), vehicle: saline with Tween-80): 101 % of control
- T/C (dose: 200.0 mg/kg/injection, schedule: Q01DX009 (ip), vehicle: saline with Tween-80): 100 % of control

Structure (SMILES): CC(=O)[O][Hg][c]1s[c]([Hg][O]C(C)=O)[c]([Hg][O]C(C)=O)[c]1[Hg][O]C(C)=O
- T/C (dose: 3.0 mg/kg/injection, schedule: Q01DX009 (ip), vehicle: saline with Tween-80): 120 % of control
- T/C (dose: 4.0 mg/kg/injection, schedule: Q01DX009 (ip), vehicle: saline with Tween-80): 109 % of control
- T/C (dose: 6.0 mg/kg/injection, schedule: Q01DX009 (ip), vehicle: saline with Tween-80): 104 % of control
- T/C (dose: 9.0 mg/kg/injection, schedule: Q01DX009 (ip), vehicle: saline with Tween-80): 90 % of control

Structure (SMILES): COCC(Cl)/C(N)=N\S(=O)(=O)c1c(C)cc(Cl)cc1Cl (configuration not stated)
- T/C [3]: 101 % of control
- T/C [4]: 100 % of control
- T/C [5]: 96 % of control

Structure (SMILES): C=C(C)[C@@H]1CC[C@](C)(CCC#N)/C(=N\NC(N)=O)C1
- T/C (dose: 100.0 mg/kg/injection, schedule: Q04DX003 (ip), vehicle: Klucel (hydroxypropylcellulose) (HPC)): 99 % of control
- T/C (dose: 200.0 mg/kg/injection, schedule: Q04DX003 (ip), vehicle: Klucel (hydroxypropylcellulose) (HPC)): 102 % of control
- T/C (dose: 400.0 mg/kg/injection, schedule: Q04DX003 (ip), vehicle: Klucel (hydroxypropylcellulose) (HPC)): 89 % of control

Structure (SMILES): Clc1c2ccccc2cc2cccnc12
- T/C (dose: 50.0 mg/kg/injection, schedule: Q01DX009 (ip), vehicle: saline): 101 % of control
- T/C (dose: 100.0 mg/kg/injection, schedule: Q01DX009 (ip), vehicle: saline): 100 % of control
- T/C (dose: 200.0 mg/kg/injection, schedule: Q01DX009 (ip), vehicle: saline): 102 % of control and 86 % of control

Structure (SMILES): Cc1nc2c(cnn2C)c(=O)n1Cc1ccccc1
- T/C [10]: 104 % of control
- T/C [11]: 97 % of control
- T/C [12]: 103 % of control

Structure (SMILES): CCn1c2ccc(C=O)cc2c2cc([N+](=O)[O-])ccc21
- T/C [10]: 92 % of control
- T/C [11]: 86 % of control
- T/C [12]: 86 % of control

Structure (SMILES): CN(C)[C](=[Au][Cl])c1ccccc1
- T/C (dose: 25.0 mg/kg/injection, schedule: Q04DX002 (ip), vehicle: Klucel (hydroxypropylcellulose) (HPC)): 109 % of control
- T/C (dose: 50.0 mg/kg/injection, schedule: Q04DX002 (ip), vehicle: Klucel (hydroxypropylcellulose) (HPC)): 111 % of control
- T/C (dose: 100.0 mg/kg/injection, schedule: Q04DX002 (ip), vehicle: Klucel (hydroxypropylcellulose) (HPC)): 108 % of control and 96 % of control

Structure (SMILES): CCCCC(Nc1nncs1)Nc1nncs1
- T/C [3]: 90 % of control
- T/C [4]: 102 % of control
- T/C [5]: 96 % of control

Structure (SMILES): COc1ccc(NC(=O)C(COCc2ccccc2)C(C)=O)cc1 (configuration not stated)
- T/C [3]: 94 % of control
- T/C [4]: 91 % of control
- T/C [5]: 92 % of control

Structure (SMILES): CC(C)N1COC(c2ccccc2)C1 (configuration not stated)
- T/C (dose: 12.5 mg/kg/injection, schedule: Q01DX005 (ip), vehicle: saline): 106 % of control and 88 % of control
- T/C (dose: 25.0 mg/kg/injection, schedule: Q01DX005 (ip), vehicle: saline): 123 % of control and 96 % of control
- T/C (dose: 50.0 mg/kg/injection, schedule: Q01DX005 (ip), vehicle: saline): 100 % of control and 110 % of control and 117 % of control
- T/C (dose: 100.0 mg/kg/injection, schedule: Q01DX005 (ip), vehicle: saline): 124 % of control
